Measured values from patent US7923041B2, “Compositions and methods for enhancing cognitive function” (Signum Biosciences, Inc., priority 2005, dated 2011).
Like-named read-outs stand apart in the source and are kept apart here.

Target: T1, PPME (Homo sapiens, UniProt Q9Y570)
T1 construct: made in house; host or cells: E. coli BL21(DE3)
T1 sequence (Q9Y570 1-386): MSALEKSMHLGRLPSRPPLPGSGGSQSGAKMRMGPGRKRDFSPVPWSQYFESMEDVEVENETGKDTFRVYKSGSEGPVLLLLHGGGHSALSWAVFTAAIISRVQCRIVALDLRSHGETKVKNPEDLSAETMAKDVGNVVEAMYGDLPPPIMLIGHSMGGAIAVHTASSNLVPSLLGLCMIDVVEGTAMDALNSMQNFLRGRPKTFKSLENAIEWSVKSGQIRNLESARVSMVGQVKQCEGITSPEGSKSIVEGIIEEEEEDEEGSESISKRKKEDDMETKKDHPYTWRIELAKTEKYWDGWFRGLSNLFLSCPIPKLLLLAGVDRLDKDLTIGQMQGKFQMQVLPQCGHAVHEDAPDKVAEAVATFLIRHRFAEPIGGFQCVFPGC
Assay: PP2A methylesterase (PPME) inhibition, filter paper method
Type: biochemical
Protocol: This example provides a method by which the rate of demethylation of methyl PP2A can be determined. For the composition of ^3H-labeled methyl-PP2A, 100 μl reaction mixtures consisting of purified PP2A AC dimers (prepared as described in Example 3), purified PPMT (prepared as described in Example 1), 50 mM MOPS buffer pH 7.2, 5 mM DTT, 1 mM EDTA, 1 mg/ml BSA and 10 μl ^3H-SAM were incubated at 37° C. for 30 min and loaded onto a desalting column pre-equilibrated in 50 mM MOPS-Na pH 7.2, 1 mM DTT, 1 mM EDTA, 200 mM NaCl and 5% glycerol. The sample was eluted with the same buffer, 50 μl fractions were collected, and each aliquot analyzed by scintillation counting. Fractions containing ^3H-methyl PP2A were collected and stored at 4° C.
The following assay (see Lee, J. et al., Proc. Nat'l Acad. Sci. U.S.A. 93(12):[…] (1996)) is referred to subsequently as the “filter paper method”. The test compound was incubated with purified PPME (prepared as described in Example 2) and purified ^3H-methyl-labeled PP2A (the preparation of which is described in the preceding paragraph) in Buffer C (50 mM MOPS, 1 mM EDTA, 1 mM DTT buffer at pH 7.2, as in Example 3). After incubation at 37° C. for a fixed time (typically 10 minutes), the reaction mixture was spotted onto a 1 cm^2 piece of Whatman 3 mM filter paper. The filter paper was immediately dipped in 10% ice-cold TCA, and then kept on ice in a plastic tray. After all reactions were run, the filter papers were washed at 4° C. with stirring in a large excess of 10% TCA, similarly washed twice at 4° C. with 100% methanol, and then vacuum dried at 45° C. for 1 hr to remove the ^3H-methanol produced by PP2A demethylation. The dried filter papers then were assayed for radioactivity by submerging them in scintillation fluid and performing scintillation counting. This procedure is easily adapted to a 96-well format to allow high-throughput screening (described below).
As used herein to refer to assay results, the term “inhibition activity” refers to the following relationship: Inhibition activity=1−(amount of methyl-PP2A carboxyl demethylated with inhibitor)/(amount of methyl-PP2A carboxyl […] without inhibitor).

[1] = PPME at 85 nM, IC50 higher than the value tested, read-out: IC50

Row | SMILES | IC50 [1] [µM] | other results
1 | Cn1c(=O)c2c(ncn2C)n(C)c1=O [caffeine] |  | IC50 (read-out: concentration required for 50% inhibition of PPME): > 440 µM
2 | Cc1c(C)c2c(c(C)c1O)CCC(C)(CCCC(C)CCCC(C)CCCC(C)C)O2 (racemic) [#12-1, DL-α-tocopherol] |  | IC50 (PPME at 85 nM, read-out: IC50): 35 µM
3 | COc1cc(C=CC(=O)O)ccc1O [HMCA, 4-Hydroxy-3-methoxycinnamic acid] | > 1000 | 
4 | COc1cc(/C=C/C(=O)CC(=O)/C=C/c2ccc(O)c(OC)c2)ccc1O [CCM-L, Curcumin] |  | IC50 (PPME at 85 nM, read-out: IC50): 771 µM

The next lines start with results.

Row | IC50 [1] [µM] | SMILES | other results
5 | > 10000 | O=C(O)[C@]1(O)C[C@@H](O)[C@@H](O)[C@H](O)C1 [QA, D(−)-Quinic acid] | 
6 | > 1000 | O=C(O)/C=C/c1ccc(O)c(O)c1 [DHCA, 3,4-Dihdroxycinnamic acid] | 
7 | > 1000 | O=C(/C=C/c1ccc(O)c(O)c1)O[C@@H]1C[C@](O)(C(=O)O)C[C@@H](O)[C@H]1O [CGA, Chlorogenic acid] | 
